Data taken from patent US11439607B2 (Paracelsus Neuroscience I, LLC, priority 2016, dated 2022).
“Also recorded” adds a separate entry of the source. Like-named read-outs stand apart in the source and are kept apart here.

Experiments:
[1] = Plasma and brain free fraction by equilibrium dialysis; assay type: in vitro ADME, rat; parameters: dose or concentration left out as unconfirmed
Method: Briefly, naive plasma and brain tissues were homogenized in 3× and 4× w/v in homogenization buffer (50:30:20 H2O:IPA:DMS0), respectively. […] Following equilibration, the buffer sample was fortified with a fixed volume of blank tissue homogenate and the tissue sample was fortified with a fixed volume of buffer. Protein precipitation was performed with ice cold acetonitrile in the presence of an analytical internal standard. The supernatants were quantified for senicapoc using LC-MS/MS as described earlier.

[2] = test system: Brennan model; experiment: Brennan model - Electronic Von Frey test; assay type: in vivo, rodent; settings: Senicapoc 100 mg/kg PO, 240 min after treatment
Method: (§1) Depending on the test, the percentage of activity was calculated from the mean value of the vehicle-treated animals and compared to naïve animals, control paw or cut-off value.

[3] = test system: Rat primary microglia; experiment: Microglial IL-1β release (LPS priming, BzATP); assay type: cell-based
Method: Rat primary microglia were primed with 3 EU/mL of ultra-pure Lipopolysaccharide (control standard endotoxin (CSE) Associates of Cape Cod, Falmouth, Mass.). […] Cell free supernatants were assayed for IL-1β using a custom rat cytokine assay (N451A-1; MesoScale Discovery, Rockville, Md.). IC50S were determined using Prism (Graphpad, San Diego, Calif.)
(§2) After 24 hours, media was assayed for nitrite (stable metabolite of NO). […] Primary rat cortical microglia were also treated with LPS (3 EU/ml, 3 hours) to stimulate the production of pro-IL-1β.

[4] = test system: Carrageenan model; experiment: Carrageenan - Paw pressure test; assay type: in vivo, rodent; settings: Senicapoc 100 mg/kg PO, 240 min after treatment
Method: as §1

[5] = test system: Healthy rats; experiment: Healthy rats - Tail flick test; assay type: in vivo; settings: Senicapoc 100 mg/kg PO, 240 min after treatment
Method: as §1

[6] = target: T1, κ-opioid receptors (Homo sapiens, UniProt P41145); experiment: Off target screen (CEREP panel) and dose response; assay type: binding
T1 construct: CEREP (contract screening)
T1 sequence (P41145 whole entry): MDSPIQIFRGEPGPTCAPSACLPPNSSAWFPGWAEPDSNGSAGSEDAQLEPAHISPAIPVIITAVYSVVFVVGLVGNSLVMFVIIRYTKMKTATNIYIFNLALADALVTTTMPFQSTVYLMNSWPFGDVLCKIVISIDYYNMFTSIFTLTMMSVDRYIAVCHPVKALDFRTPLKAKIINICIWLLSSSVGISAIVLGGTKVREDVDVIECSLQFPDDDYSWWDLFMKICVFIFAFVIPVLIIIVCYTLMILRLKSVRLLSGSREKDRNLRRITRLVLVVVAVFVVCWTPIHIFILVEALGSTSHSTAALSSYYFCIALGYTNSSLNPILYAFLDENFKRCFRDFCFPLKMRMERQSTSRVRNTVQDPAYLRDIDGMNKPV

[7] = rats, post dose; cited from earlier work
[8] = test system: Acetic acid test; experiment: Acetic acid test - Abdominal cramps; assay type: in vivo, rodent; settings: Senicapoc 100 mg/kg PO, 240 min after treatment
Method: as §1

[9] = test system: Rat primary microglia; experiment: Microglial NO release (measurement of nitrite) after LPS; assay type: cell-based; settings: 24 hours
Method: Next, 3 EU/ml of ultra-pure Lipopolysaccharide (CSE, Associates of Cape Cod) was added to induce iNOS expression and NO synthesis. After a total incubation time of 24 hours, media was collected, spun down to remove cells and assayed for nitrite (the stable breakdown product of NO) using Griess Reagent (Promega, Madison Wis.).
as §2

[10] = test system: TNBS model; experiment: TNBS - Colorectal distension; assay type: in vivo, rodent; settings: Senicapoc 100 mg/kg PO, 240 min after treatment
Method: as §1

[11] = target: T2, μ-opioid receptors (Homo sapiens, UniProt P35372); experiment: Off target screen (CEREP panel) and dose response; assay type: binding
T2 construct: CEREP (contract screening)
T2 sequence (P35372 whole entry): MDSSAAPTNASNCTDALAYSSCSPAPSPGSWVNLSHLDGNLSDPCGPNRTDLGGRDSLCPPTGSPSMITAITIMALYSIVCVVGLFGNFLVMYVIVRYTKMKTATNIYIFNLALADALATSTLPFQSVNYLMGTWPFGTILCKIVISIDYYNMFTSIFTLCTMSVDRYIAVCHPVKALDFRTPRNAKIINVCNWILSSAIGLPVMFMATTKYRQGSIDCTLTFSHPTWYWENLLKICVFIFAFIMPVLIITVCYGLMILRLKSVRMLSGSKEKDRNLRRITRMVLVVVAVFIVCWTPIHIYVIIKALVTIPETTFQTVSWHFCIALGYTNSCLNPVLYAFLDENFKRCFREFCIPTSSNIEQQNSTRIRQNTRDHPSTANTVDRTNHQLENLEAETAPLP

[12] = test system: rats; experiment: Rat locomotor activity; assay type: in vivo; settings: 4 hours after dosing
Source text: Male Sprague-Dawley rats (Charles River) weighing 225-275 g on the test day were divided into groups of 8 animals per treatment. […] Following the pre-treatment time, rats were placed into 50×25×20 cm cages lined with crushed corn cob bedding (Bed-o'Cobs ¼ inch, Andersons Lab Bedding, Maumee, Ohio, USA). The cages were positioned in a Smart Frame Cage Rack (Kinder Scientific, Poway, Calif., USA) outfitted with an infrared beam array (7 X×15 Y). Rats were allowed to move freely within the cage for 1 hour with beam breaks continuously recorded using MotorMonitor™ (Kinder Scientific,). Time course and cumulative data were analyzed with Prism 4 (GraphPad, La Jolla, Calif.). One-way ANOVA with Tukey's Multiple Comparison Post-Hoc Test was used for statistical analysis.

[13] = test system: Oxaliplatin model; experiment: Oxaliplatin - Acetone test (reaction time); assay type: in vivo, rodent; settings: Senicapoc 100 mg/kg PO, 240 min after treatment
Method: as §1

[14] = test system: Kaolin model; experiment: Kaolin - Gait score; assay type: in vivo, rodent; settings: Senicapoc 100 mg/kg PO, 240 min after treatment
Method: as §1

[15] = target: T3, KCa3.1 (Rattus norvegicus, UniProt Q9QYW1); experiment: Whole cell patch clamp of K+ currents in rat primary microglia; assay type: cell-based; settings: read-out: IC50, inhibition of microglial K+ current
T3 construct: K^+ currents were recorded from primary microglia; endogenous in cells; host or cells: primary rat (cortical) microglia
Method: Primary rat microglia were plated at a density of 300,000/35 mm dish for 24 hours. Whole cell patch clamp recordings were performed using an EPC9 patch-clamp amplifier and PatchMaster software (HEKA Instruments Inc.). The cell's membrane potential was held at −60 mV. External solution contained (in mM): 140 NaCl, 4 KCl, […], 1.8 CaCl2, 10 HEPES, 10 Glucose, pH 7.4. Patch solution contained (in mM): 140 […], 11 EGTA, 2 MgCl2, 10 HEPES, pH 7.2. Drugs were applied by gravity and selected with a capillary tube placed in close proximity to the recording dish. BzATP (Sigma-Aldrich, St. Louis, Mo.) was applied for 10 seconds.
KCa3.1 is highly expressed on microglia in vitro (Kaushal et al., 2007). […] Some residual K^+ current still remained which was most likely not KCa3.1-sensitive (Kettenmann et al., 2011)

[16] = full dose response curve, functional testing

For `NC(=O)C(c1ccccc1)(c1ccc(F)cc1)c1ccc(F)cc1` [Senicapoc], the fraction unbound at 2.5 h ([1]; brain homogenate (4x w/v in homogenization buffer), rat brain homogenate, read-out: In vitro rat brain free fraction (UBBr)) was 0.008, the fraction unbound at 2.5 h ([1]; plasma (diluted 3x w/v in homogenization buffer), rat plasma, read-out: In vitro rat plasma free fraction (UBP)) was 0.027 and the “% of activity vs. vehicle” value [2] was −7%. The IC50 ([3]; FIG. 2B legend, LPS 3EU/ml 24 hours, n=3, read-out: IC50, inhibition of IL-1β release from primary microglia (FIG. 2B legend)) was 1.3 nM, the IC50 ([3]; LPS 3 EU/ml priming, BzATP 1 mM, read-out: IC50, inhibition of IL-1β release from primary microglia) was 15 nM and the “% of activity vs. vehicle” value [4] was 116%. The “% of activity vs. vehicle” value [5] was 9%, the inhibition at 10 µM ([6]; 10 μM) was > 50% and the IC50 [6, 16] was 19 µM. The “Tmax (time of maximum plasma concentration)” value [7] was 4 h, the “% of activity vs. vehicle” value [8] was −32% and the EC50 ([9]; FIG. 2A legend, LPS 3EU/ml, n=3, read-out: EC50, inhibition of NO production (nitrite), representative experiment) was 0.9 nM. For the same compound, the IC50 ([9]; LPS 3 EU/ml, nitrite, read-out: IC50, inhibition of NO release from LPS-treated microglia (average)) was 39 nM, the “% of activity vs. vehicle” value [10] was 50% and the inhibition at 10 µM ([11]; 10 μM) was > 50%. For the same compound, the IC50 [11, 16] was 12 µM, the “Effect on locomotor activity (total distance traveled)” value ([12]; 30 mg/kg p.o.) was “no effect; also recorded: did not significantly affect” and the “Effect on locomotor activity (total distance traveled)” value ([12]; 100 mg/kg p.o.) was “no effect; also recorded: did not significantly affect”. For the same compound, the “% of activity vs. vehicle” value [13] was 68%, the “% of activity vs. vehicle” value [14] was 29% and the IC50 [15] was 10 nM.
